Laboratory results from ChEMBL document CHEMBL3425444, “Discovery of piperidin-4-yl-aminopyrimidine derivatives as potent non-nucleoside HIV-1 reverse transcriptase inhibitors” (Eur J Med Chem, 2015).

Assays:
[1] = Retention time of the compound by HPLC analysis; type: physicochemical
[2] = Cytotoxicity against human MT4 cells assessed as reduction of cell viability after 4 days by MTT assay; type: cell-based
[3] = test system: Human immunodeficiency virus 1; assay: Antiviral activity against HIV-1 RES056 harboring reverse transcriptase K103N/Y181C double mutant infected in human MT4 cells assessed as protection from virus-induced cytopathicity after 4 days by MTT assay; type: functional, organism-based; conditions: Human immunodeficiency virus 1, RES056, MT4, 96 h
[4] = Selectivity index, ratio of CC50 for human MT4 cells to EC50 for HIV1 3B infected in human MT4 cells; type: toxicity, cell-based; conditions: HIV1 3B infected MT4 cells, read-out: Selectivity Index
[5] = test system: Human immunodeficiency virus 2; assay: Antiviral activity against HIV-2 ROD infected in human MT4 cells assessed as protection from virus-induced cytopathicity after 4 days by MTT assay; type: functional, organism-based; conditions: Human immunodeficiency virus 2, ISOLATE ROD, MT4, 96 h
[6] = test system: Human immunodeficiency virus 1; assay: Antiviral activity against wild type HIV1 3B infected in human MT4 cells assessed as protection from virus-induced cytopathicity after 4 days by MTT assay; type: functional, organism-based; conditions: Human immunodeficiency virus 1, 3B, MT4, 96 h
[7] = molecular target: Human immunodeficiency virus type 1 reverse transcriptase (Human immunodeficiency virus 1, UniProt Q72547); assay: Inhibition of HIV1 recombinant wild type reverse transcriptase p66/p51 assessed as reduction in biotin-labeled dUTP incorporation into DNA using polyr(A) x oligo(dT)16 template/primer hybrid

Row | SMILES | Retention_time [1] | CC50 at 96 h [2] | EC50 [3] | selectivity ratio [4] | EC50 [5] | EC50 [6] | IC50 [7]
1 | Cc1ccccc1NC(=O)CN1CCC(Nc2nccc(Oc3c(C)cc(C#N)cc3C)n2)CC1 | 11.33 min | 1.25 µM | > 1.25 µM | 20 | > 1.25 µM | 0.0616 µM | 
2 | Cc1cccc(NC(=O)CN2CCC(Nc3nccc(Oc4c(C)cc(C#N)cc4C)n3)CC2)c1 | 11.43 min | 1.68 µM | > 1.68 µM | 254 | > 1.68 µM | 0.0066 µM | 
3 | Cc1ccc(NC(=O)CN2CCC(Nc3nccc(Oc4c(C)cc(C#N)cc4C)n3)CC2)cc1 | 11.29 min | 2.02 µM | > 2.02 µM | 367 | > 2.02 µM | 0.0055 µM | 0.181 µM
4 | Cc1cc(C)cc(NC(=O)CN2CCC(Nc3nccc(Oc4c(C)cc(C#N)cc4C)n3)CC2)c1 | 12.18 min | 2.31 µM | > 2.31 µM | 155 | > 2.31 µM | 0.0149 µM | 
5 | Cc1ccc(NC(=O)CN2CCC(Nc3nccc(Oc4c(C)cc(C#N)cc4C)n3)CC2)cc1C | 12.21 min | 1.51 µM | > 1.51 µM | 177 | > 1.51 µM | 0.0085 µM | 
6 | COc1ccc(NC(=O)CN2CCC(Nc3nccc(Oc4c(C)cc(C#N)cc4C)n3)CC2)cc1 | 10.82 min | 1.56 µM | > 1.56 µM | 446 | > 1.56 µM | 0.0035 µM | 
7 | Cc1cc(C#N)cc(C)c1Oc1ccnc(NC2CCN(CC(=O)Nc3ccccc3F)CC2)n1 | 11.43 min | 119 µM | > 119 µM | 16900 | > 119 µM | 0.007 µM | 0.207 µM
8 | Cc1cc(C#N)cc(C)c1Oc1ccnc(NC2CCN(CC(=O)Nc3cccc(F)c3)CC2)n1 | 11.41 min | 1.41 µM | > 1.41 µM | 231 | > 1.41 µM | 0.0061 µM | 
9 | Cc1cc(C#N)cc(C)c1Oc1ccnc(NC2CCN(CC(=O)Nc3ccc(F)cc3)CC2)n1 | 10.85 min | 1.81 µM | > 1.81 µM | 431 | > 1.81 µM | 0.0042 µM | 0.204 µM
10 | Cc1cc(C#N)cc(C)c1Oc1ccnc(NC2CCN(CC(=O)Nc3ccccc3Cl)CC2)n1 | 12.14 min | 1.51 µM | > 1.51 µM | 44 | > 1.51 µM | 0.0346 µM | 
11 | Cc1cc(C#N)cc(C)c1Oc1ccnc(NC2CCN(CC(=O)Nc3cccc(Cl)c3)CC2)n1 | 11.95 min | 1.26 µM | > 1.26 µM | 214 | > 1.26 µM | 0.0059 µM | 
12 | Cc1cc(C#N)cc(C)c1Oc1ccnc(NC2CCN(CC(=O)Nc3ccc(Cl)cc3)CC2)n1 | 11.62 min | 0.998 µM | > 0.998 µM | 164 | > 0.998 µM | 0.0061 µM | 
13 | Cc1cc(C#N)cc(C)c1Oc1ccnc(NC2CCN(CC(=O)Nc3ccc(Cl)cc3Cl)CC2)n1 | 13.21 min | 1.75 µM | > 1.75 µM | 15 | > 1.75 µM | 0.118 µM | 
14 | Cc1cc(C#N)cc(C)c1Oc1ccnc(NC2CCN(CC(=O)Nc3ccc(Cl)c(Cl)c3)CC2)n1 | 12.62 min | 1.28 µM | > 1.28 µM | 61 | > 1.28 µM | 0.0209 µM | 
15 | Cc1cc(C#N)cc(C)c1Oc1ccnc(NC2CCN(CC(=O)Nc3cc(Cl)cc(Cl)c3)CC2)n1 | 13.08 min | 3.52 µM | > 3.52 µM | 46 | > 3.52 µM | 0.0761 µM | 
16 | Cc1cc(C#N)cc(C)c1Oc1ccnc(NC2CCN(CC(=O)Nc3c(Cl)cc(Cl)cc3Cl)CC2)n1 | 11.85 min | 1.5 µM | > 1.5 µM | ≤ 5 | > 1.5 µM | ≥ 0.304 µM | 
17 | Cc1cc(C#N)cc(C)c1Oc1ccnc(NC2CCN(CC(=O)Nc3ccc(Br)cc3)CC2)n1 | 11.85 min | 1.48 µM | > 1.48 µM | 238 | > 1.48 µM | 0.0062 µM | 
18 | Cc1cc(C#N)cc(C)c1Oc1ccnc(NC2CCN(CC(=O)Nc3ccc(C#N)cc3)CC2)n1 | 10.72 min | 0.602 µM | > 0.602 µM | 208 | > 0.602 µM | 0.0029 µM | 
19 | Cc1cc(C#N)cc(C)c1Oc1ccnc(NC2CCN(CC(=O)Nc3ccc(C#N)cc3F)CC2)n1 | 11.27 min | 1.96 µM | > 1.96 µM | 245 | > 1.96 µM | 0.008 µM | 0.174 µM
20 | Cc1cc(C#N)cc(C)c1Oc1ccnc(NC2CCN(CC(=O)Nc3ccccc3[N+](=O)[O-])CC2)n1 | 11.75 min | 59.3 µM | > 59.3 µM | 1420 | > 59.3 µM | 0.0419 µM | 0.193 µM
21 | Cc1cc(C#N)cc(C)c1Oc1ccnc(NC2CCN(CC(=O)Nc3cccc([N+](=O)[O-])c3)CC2)n1 | 11.49 min | ≥ 0.379 µM | > 0.379 µM | ≥ 49 | > 0.379 µM | 0.0078 µM | 0.156 µM
22 | Cc1cc(C#N)cc(C)c1Oc1ccnc(NC2CCN(CC(=O)Nc3ccc([N+](=O)[O-])cc3)CC2)n1 | 11.13 min | 0.518 µM | > 0.518 µM | 89 | > 0.518 µM | 0.0058 µM | 0.136 µM
23 | Cc1cc(C#N)cc(C)c1Oc1ccnc(NC2CCN(CC(=O)Nc3ccc(O)cc3)CC2)n1 | 10.25 min | 2.18 µM | > 2.18 µM | 1040 | > 2.18 µM | 0.0021 µM | 0.102 µM
24 | Cc1cc(C#N)cc(C)c1Oc1ccnc(NC2CCN(CC(=O)Nc3ccc(S(N)(=O)=O)cc3)CC2)n1 | 9.11 min | 1.61 µM | > 1.61 µM | 845 | > 1.61 µM | 0.0019 µM | 0.116 µM
25 | Cc1cc(S(N)(=O)=O)ccc1NC(=O)CN1CCC(Nc2nccc(Oc3c(C)cc(C#N)cc3C)n2)CC1 | 9.61 min | 1.64 µM | > 1.64 µM | 309 | > 1.64 µM | 0.0053 µM | 0.166 µM
26 | CC(C)Nc1cccnc1N1CCN(C(=O)c2cc3cc(NS(C)(=O)=O)ccc3[nH]2)CC1 [DELAVIRDINE] |  | > 43.8 µM | > 43.8 µM | > 67 |  |  | 
27 | O=C1Nc2ccc(Cl)cc2[C@@](C#CC2CC2)(C(F)(F)F)O1 [EFAVIRENZ] |  | > 6.34 µM |  |  |  | 0.0063 µM | 
28 | Cc1cc(C#N)cc(C)c1Oc1nc(Nc2ccc(C#N)cc2)nc(N)c1Br [ETRAVIRINE] |  | > 4.59 µM | 0.0253 µM | > 1120 |  |  | 
